Results taken from patent publication US9186346B2, “Methods for reducing the risk of an adverse teriflunomide and rosuvastatin interaction in multiple sclerosis patients” (SANOFI, priority 2013, dated 2015).

Assays:
OATP1B3 = molecular target: T1, OATP1B3 (Homo sapiens, UniProt Q9NPD5); assay: In vitro inhibition of OATP1B3
T1 sequence (Q9NPD5 1-702): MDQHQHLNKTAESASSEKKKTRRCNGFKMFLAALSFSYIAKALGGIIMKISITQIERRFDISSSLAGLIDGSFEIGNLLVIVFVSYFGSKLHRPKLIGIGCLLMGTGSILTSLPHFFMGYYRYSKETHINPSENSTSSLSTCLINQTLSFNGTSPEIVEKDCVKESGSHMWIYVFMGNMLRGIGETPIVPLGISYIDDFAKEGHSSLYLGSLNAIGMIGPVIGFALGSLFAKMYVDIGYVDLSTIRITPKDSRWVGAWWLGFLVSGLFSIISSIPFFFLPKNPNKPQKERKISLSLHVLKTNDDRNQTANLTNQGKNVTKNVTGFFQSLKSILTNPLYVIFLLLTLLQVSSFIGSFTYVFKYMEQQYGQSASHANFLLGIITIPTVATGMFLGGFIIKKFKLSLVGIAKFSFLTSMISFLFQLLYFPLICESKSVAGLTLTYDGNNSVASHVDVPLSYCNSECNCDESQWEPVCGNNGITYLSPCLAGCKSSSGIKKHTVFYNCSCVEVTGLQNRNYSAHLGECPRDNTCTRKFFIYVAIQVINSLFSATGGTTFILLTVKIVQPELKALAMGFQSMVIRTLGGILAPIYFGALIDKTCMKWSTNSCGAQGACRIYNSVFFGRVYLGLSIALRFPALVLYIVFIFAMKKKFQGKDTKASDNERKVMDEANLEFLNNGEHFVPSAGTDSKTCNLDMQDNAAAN
Source text: (§1) The use of teriflunomide for treating multiple sclerosis is described in U.S. Pat. No. 6,794,410.

OAT3 = molecular target: T2, OAT3 (Homo sapiens, UniProt Q8TCC7); assay: In vitro inhibition of OAT3
T2 sequence (Q8TCC7 1-542): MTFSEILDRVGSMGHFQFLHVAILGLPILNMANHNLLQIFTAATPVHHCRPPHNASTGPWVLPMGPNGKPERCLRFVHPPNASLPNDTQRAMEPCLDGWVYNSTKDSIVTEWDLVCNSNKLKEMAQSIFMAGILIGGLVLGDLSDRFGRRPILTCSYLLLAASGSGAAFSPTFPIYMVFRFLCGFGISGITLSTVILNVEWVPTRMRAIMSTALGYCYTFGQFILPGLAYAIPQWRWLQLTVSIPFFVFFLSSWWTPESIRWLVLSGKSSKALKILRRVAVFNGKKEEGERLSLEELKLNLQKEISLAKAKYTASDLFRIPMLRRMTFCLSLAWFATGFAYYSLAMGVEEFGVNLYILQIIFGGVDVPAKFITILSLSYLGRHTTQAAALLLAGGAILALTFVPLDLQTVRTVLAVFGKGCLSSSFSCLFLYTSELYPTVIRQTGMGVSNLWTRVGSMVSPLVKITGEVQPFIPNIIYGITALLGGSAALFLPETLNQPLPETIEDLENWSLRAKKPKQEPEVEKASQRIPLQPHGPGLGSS
Source text: as §1

BCRP = molecular target: T3, BCRP (Homo sapiens, UniProt Q9UNQ0); assay: In vitro inhibition of BCRP
T3 sequence (Q9UNQ0 1-655): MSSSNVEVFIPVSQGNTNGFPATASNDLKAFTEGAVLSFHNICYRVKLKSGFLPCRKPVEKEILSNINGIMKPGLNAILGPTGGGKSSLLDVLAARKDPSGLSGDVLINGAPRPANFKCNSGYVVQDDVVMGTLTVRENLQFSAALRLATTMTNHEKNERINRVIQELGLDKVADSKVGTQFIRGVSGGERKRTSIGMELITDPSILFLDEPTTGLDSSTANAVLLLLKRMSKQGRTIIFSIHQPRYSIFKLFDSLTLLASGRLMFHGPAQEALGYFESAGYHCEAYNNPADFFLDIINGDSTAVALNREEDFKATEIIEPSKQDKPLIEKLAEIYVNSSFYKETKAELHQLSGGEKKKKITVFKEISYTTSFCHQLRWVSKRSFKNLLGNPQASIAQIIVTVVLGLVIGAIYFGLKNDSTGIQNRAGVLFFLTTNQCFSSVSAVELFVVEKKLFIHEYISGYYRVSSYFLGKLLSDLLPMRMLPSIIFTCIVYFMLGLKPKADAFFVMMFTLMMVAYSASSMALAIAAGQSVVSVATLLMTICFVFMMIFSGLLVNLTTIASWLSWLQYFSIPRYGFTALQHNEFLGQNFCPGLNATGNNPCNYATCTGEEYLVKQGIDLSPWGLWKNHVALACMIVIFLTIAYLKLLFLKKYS
Source text: as §1

human OATP1B1 = molecular target: T4, human OATP1B1 (Homo sapiens, UniProt Q9Y6L6); assay: In vitro inhibition of human OATP1B1
T4 sequence (Q9Y6L6 1-691): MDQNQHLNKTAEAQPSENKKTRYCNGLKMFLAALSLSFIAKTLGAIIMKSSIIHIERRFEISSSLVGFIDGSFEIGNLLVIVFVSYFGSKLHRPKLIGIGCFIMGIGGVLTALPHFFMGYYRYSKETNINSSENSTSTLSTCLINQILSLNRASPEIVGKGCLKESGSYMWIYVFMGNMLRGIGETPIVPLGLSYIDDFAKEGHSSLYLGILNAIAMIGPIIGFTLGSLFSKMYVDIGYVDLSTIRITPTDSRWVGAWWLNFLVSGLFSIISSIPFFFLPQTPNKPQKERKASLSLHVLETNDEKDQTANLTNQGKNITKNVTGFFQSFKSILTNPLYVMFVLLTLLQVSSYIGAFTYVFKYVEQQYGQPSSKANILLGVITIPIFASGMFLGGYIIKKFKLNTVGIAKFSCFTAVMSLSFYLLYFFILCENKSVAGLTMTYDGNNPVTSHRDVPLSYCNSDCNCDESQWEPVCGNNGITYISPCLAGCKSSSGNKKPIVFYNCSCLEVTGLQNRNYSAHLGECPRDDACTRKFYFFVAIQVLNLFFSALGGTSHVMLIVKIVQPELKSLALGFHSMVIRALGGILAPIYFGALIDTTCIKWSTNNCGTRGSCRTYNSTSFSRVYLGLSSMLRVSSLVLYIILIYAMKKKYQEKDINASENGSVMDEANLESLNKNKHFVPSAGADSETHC
Source text: as §1

[1] = Crossover interaction study: effect of repeated doses of teriflunomide on the pharmacokinetics of a single dose of rosuvastatin in healthy male subjects; format: in vivo, human
Method: A single-center, open-label, 1-sequence, 2-period, 2-treatment crossover study with a 5-day washout between periods was conducted in 15 healthy male subjects aged 18 to 45 to evaluate the effect of repeated doses of teriflunomide on the pharmacokinetics (PK) of a single dose of rosuvastatin 10 mg. All subjects received the following treatments during each period: • 1. Period 1: A single 10 mg dose of rosuvastatin was administered in fasted state followed by a 5-day washout (from Days 1 to 6). Day 6 corresponded to Day 1 of Period 2. • 2. Period 2: A loading dose of 70 mg teriflunomide was administered once a day for 4 days (Days 1 to 4), followed by 14 mg once a day for 8 days (Days 5 to 12) in fed conditions except for Day 12. A single dose of 10 mg rosuvastatin was co-administered with teriflunomide on Day 12 in fasted conditions.
The following PK parameters were calculated using noncompartmental methods from plasma rosuvastatin concentration obtained after single dose administration:
Rosuvastatin: Area under the plasma concentration versus time curve (AUC) from time zero to the real time corresponding to the last concentration above the lower limit of quantitation, tlast, (AUClast) and area under the plasma concentration versus time curve extrapolated to infinity (AUC).
Rosuvastatin: Maximum plasma concentration (Cmax) observed, time to reach maximum concentration (Tmax), tlast, and terminal half-life (t1/2z).
Rosuvastatin: Blood samples were collected at predose, 0.5, 1, 2, 3, 4, 5, 6, 8, 10, 12, 24 and 36 hours postdose on Day 1 of Period 1 and Day 12 of Period 2.
Rosuvastatin plasma concentrations were determined by a validated liquid chromatography couples with tandem mass spectrometry (LC-MS/MS) method, with a LLOQ (lower limit of quantification) of 50.1 pg/mL. Teriflunomide plasma concentrations were determined with a validated LC-MS/MS method with an LLOQ of 0.01 μg/mL.
Rosuvastatin PK parameters and teriflunomide Ctrough (trough plasma concentration) were summarized with descriptive statistics for each treatment.

[2] = following teriflunomide 70 mg QD for 4 days and 14 mg QD for 8 days

| IC50 (OATP1B3) [µM] | IC50 (OAT3) [µM] | IC50 (BCRP) [µM] | IC50 (human OATP1B1) [µM] | Structure (SMILES) | Increase in mean rosuvastatin AUC [1, 2] [fold] | Increase in mean rosuvastatin Cmax [1, 2] [fold] | AUC(0-t) ([1]; male, human, plasma, rosuvastatin 10 mg alone, mean ± SD, N=15, read-out: Rosuvastatin AUClast) [ng·h/mL] | Tmax ([1]; male, human, plasma, rosuvastatin 10 mg alone, median (min-max), N=15) [h] | Cmax ([1]; male, human, rosuvastatin 10 mg single dose alone, fasted, Day 1 Period 1, plasma, mean ± SD, N=15) [ng/mL] | Rosuvastatin t1/2z ([1]; rosuvastatin 10 mg alone, mean ± SD, N=15) [h] |
| --- | --- | --- | --- | --- | --- | --- | --- | --- | --- | --- |
| 7.04 | 1.3 | 0.15 | 7.1 | C/C(O)=C(\C#N)C(=O)Nc1ccc(C(F)(F)F)cc1 [Teriflunomide, (Z)-2-cyano-3-hydroxy-but-2-enoic acid-(4′-trifluoromethylphenyI)-amide] |  |  |  |  |  |  |
|  |  |  |  | CC(C)c1nc(N(C)S(C)(=O)=O)nc(-c2ccc(F)cc2)c1/C=C/[C@@H](O)C[C@@H](O)CC(=O)O [Rosuvastatin] | 2.51 | 2.65 | 31.5 ± 16.4 | 3 | 3.65 ± 1.78 | 11.1 ± 2.99 |
